From publication PMC11242640 (International Journal of Molecular Sciences, 2024)
Read-outs that look alike come from different tables or passages of the source.

Key:
eeAChE = eeAChE (Electrophorus electricus, UniProt O42275); assay: eeAChE inhibition, modified Ellman's method; format: biochemical
Method: (§1) Enzymes were prepared in 20 mM Tris buffer pH 7.5 and DTNB, ATChI, and BTChI in 50 mM Tris buffer pH 8.0. Cholinesterase activity was evaluated using a 96-well microplate reader (Bio Tek 800TSUV Absorbance Reader, Agilent, Santa Clara, CA, USA) at room temperature. The microplate well was filled with 180 μL of Tris buffer (50 mM, pH 8.0), 10 μL of tested solutions (final concentrations in a range of 20–1000 μM), 10 μL of an enzyme (final concentration 0.04 U/mL), 10 μL of DTNB (final concentration 0.3 mM), and […] of ATChI/BTChI (final concentration of 0.5 mM). […] Without the use of inhibitors and enzymes, non-enzymatic hydrolysis was evaluated as a blank for the control measurement. The non-enzymatic hydrolysis reaction with an added inhibitor was used as a blank for the samples. The same volume of buffer was substituted for the enzyme. All experiments were run in triplicate. The following formula was applied to calculate the inhibition percentage: Inhibition (%) = [(AC − AT)/AC] × 100, where AC is the activity of the enzyme without a test sample and AT is the activity of the enzyme with a test sample. […] The inhibitory activity of ethanol was subtracted from all the samples. The IC50 values were obtained by a nonlinear fit of compound concentration values versus the response.

[1] = CUPRAC reducing antioxidant capacity assay; details: Trolox equivalent, pH 7.0
From the text: The CUPRAC test is based on the reduction of Cu^2+ to Cu^+ due to the action of antioxidants. A reaction occurs at a pH 7.0 (close to physiological pH) in the presence of neocuproin. The reactive Ar-OH groups of polyphenols and other antioxidants are oxidized to the corresponding quinones, and Cu^2+-neocuproin is reduced to the colored complex Cu^+-neocuproin [51].
CUPRAC-reducing-antioxidant-capacity assay. […] Ammonium acetate, neocuproine, copper(II) chloride, and standard Trolox were purchased from Sigma–Aldrich (St. Louis, MO, USA). The reaction mixture contained 1 mL of each of these solutions: NH4Ac buffer (1 M, pH 7.0), Cu(II) chloride (10 mM), and neocuproine (7.5 mM, dissolved in ethanol). To make a final volume of 4.1 mL, x mL of the testing sample (or standard Trolox) and (1,1-x) mL of H2O were added to an initial mixture. The tubes were vortexed and left for 30 min at room temperature. As a blank test, the same mixture was used only without the test sample. Absorbance was recorded at 450 nm (UV-1800 UV/Vis spectrophotometer, Shimadzu, Kyoto, Japan).

eqBChE = biological target: T1, eqBChE (Equus caballus, UniProt P81908); assay: eqBChE inhibition, modified Ellman's method; format: biochemical; details: for inhibition of BChE: concentration not given
T1 construct: eqBChE (from equine serum); purchased Sigma–Aldrich (St. Louis, MO, USA); host or cells: equine serum
Method: as §1

[2] = DPPH radical scavenging activity; details: for IC50: 30 min, 25 °C, dash = IC50 value not achieved; for DPPH Inhibition (%): at maximal concentration tested
From the text: DPPH is the most commonly used method to determine the antioxidant activity of different potential antioxidants. DPPH is a stable organic radical capable of accepting an electron or a hydrogen radical and changing into a non-radical form, DPPH-H [50]. The percentage of radical quenching is used as a measure of the compound antioxidant capacity.
DPPH radical scavenging activity. The stable radical 1,1-diphenyl-2-picrylhydrazyl (DPPH, Sigma–Aldrich, St. Louis, MO, USA) is the reagent used in this spectrophotometric test. The DPPH ethanolic solution (c = 8⋅10^−4 mol/L) was prepared daily and stored in a dark flask at 4 °C between the measurements. […] The reaction mixture was vortexed and incubated in the dark for 30 min at 25 °C. […] Antioxidant substances reduce the DPPH radical and decrease its absorbance at this wavelength. The DPPH inhibition, reported as a percentage, was obtained according to the equation: Inhibition (%) = [(AC(0) − AA(t))/AC(0)] × 100, where AC(0) is the absorbance of the control at t = 0 min and AA(t) is the absorbance of the antioxidant at t = 30 min. Each of the measurements was conducted three times. Inhibition percentages were expressed as mean values ± standard deviation. IC50 values were calculated using a nonlinear fit of compound concentration values versus the inhibition percentage.

[3] = read-out: eeAChE Inhibition (%)
[4] = read-out: eqBChE Inhibition (%)

T1 sequence (P81908 whole entry): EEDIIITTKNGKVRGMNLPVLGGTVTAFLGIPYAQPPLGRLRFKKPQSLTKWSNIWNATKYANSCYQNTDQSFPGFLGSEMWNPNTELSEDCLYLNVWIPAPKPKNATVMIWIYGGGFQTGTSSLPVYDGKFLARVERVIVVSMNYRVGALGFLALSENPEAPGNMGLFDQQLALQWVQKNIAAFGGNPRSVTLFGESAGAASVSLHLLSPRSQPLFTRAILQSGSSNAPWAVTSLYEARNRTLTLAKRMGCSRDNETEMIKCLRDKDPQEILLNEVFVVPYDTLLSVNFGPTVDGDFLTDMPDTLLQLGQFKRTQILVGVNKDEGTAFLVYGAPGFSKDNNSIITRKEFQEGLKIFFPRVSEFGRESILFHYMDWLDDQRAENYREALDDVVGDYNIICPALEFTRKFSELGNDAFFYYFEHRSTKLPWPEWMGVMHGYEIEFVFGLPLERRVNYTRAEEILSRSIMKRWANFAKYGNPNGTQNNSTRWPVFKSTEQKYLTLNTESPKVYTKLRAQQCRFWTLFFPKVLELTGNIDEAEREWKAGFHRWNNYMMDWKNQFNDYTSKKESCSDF
Sequence of eeAChE (O42275 24-633): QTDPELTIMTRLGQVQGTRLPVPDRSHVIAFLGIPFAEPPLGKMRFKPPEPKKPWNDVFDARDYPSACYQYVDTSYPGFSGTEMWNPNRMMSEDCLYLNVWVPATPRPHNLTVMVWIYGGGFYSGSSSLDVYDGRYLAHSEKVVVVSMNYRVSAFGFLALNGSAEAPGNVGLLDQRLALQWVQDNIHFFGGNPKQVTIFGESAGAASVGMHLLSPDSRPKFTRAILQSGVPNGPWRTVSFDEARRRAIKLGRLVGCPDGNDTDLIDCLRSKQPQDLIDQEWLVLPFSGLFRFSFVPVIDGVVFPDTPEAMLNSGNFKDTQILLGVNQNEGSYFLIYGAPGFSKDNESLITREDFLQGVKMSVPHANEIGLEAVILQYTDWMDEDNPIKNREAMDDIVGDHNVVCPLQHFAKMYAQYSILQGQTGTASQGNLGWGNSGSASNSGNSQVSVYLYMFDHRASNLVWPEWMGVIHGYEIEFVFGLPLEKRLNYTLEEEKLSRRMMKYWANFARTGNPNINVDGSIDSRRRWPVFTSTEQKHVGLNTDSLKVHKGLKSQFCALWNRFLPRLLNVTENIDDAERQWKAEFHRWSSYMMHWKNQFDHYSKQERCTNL

| SMILES | IC50 (eeAChE; dash = IC50 value not achieved) | inhibition at 500 µM (eeAChE; [3]) | CUPRAC [1] | IC50 (eqBChE; dash = IC50 value not achieved) | IC50 [2] | DPPH Inhibition (%) ([2]; 500 μM) | inhibition at 500 µM (eqBChE; [4]) | further results |
| --- | --- | --- | --- | --- | --- | --- | --- | --- |
| Oc1ccc(F)cc1/C=C/c1cccs1 [Compound 1, (E)-4-fluoro-2-(2-(thiophen-2-yl)vinyl)phenol] | 178 µM | 80.9 ± 1.9% | 0.925 mol TE/mol of Compound | 66 µM | 159 µM | 77.2 ± 0.5 (500) % | – | inhibition at 400 µM (eqBChE; [4]): 83.5 ± 0.8% |
| Oc1ccc(Cl)cc1/C=C/c1cccs1 [Compound 2, (E)-4-chloro-2-(2-(thiophen-2-yl)vinyl)phenol] | 82.3 µM | – | 0.713 mol TE/mol of Compound | 53 µM | 265 µM | 65.0 ± 2.4 (500) % | – | inhibition at 250 µM (eeAChE; [3]): 83 ± 2.5%; inhibition at 200 µM (eqBChE; [4]): 80.4 ± 6.4% |
| COc1ccc(O)c(/C=C/c2cccs2)c1 [Compound 3, (E)-4-methoxy-2-(2-(thiophen-2-yl)vinyl)phenol] | 405 µM | 77.8 ± 5.2% | 1.111 mol TE/mol of Compound | 206 µM | 36.2 µM | 87.7 ± 0.8 (500) % | 68.5 ± 6.2% | – |
| Cc1ccc(O)c(/C=C/c2cccs2)c1 [Compound 4, (E)-4-methyl-2-(2-(thiophen-2-yl)vinyl)phenol] | 225 µM | – | 0.852 mol TE/mol of Compound | 36.5 µM | 51.4 µM | – | – | inhibition at 250 µM (eeAChE; [3]): 82.1 ± 1.1%; inhibition at 250 µM (eqBChE; [4]): 81.1 ± 2.2%; DPPH Inhibition (%) ([2]; 400 μM): 90.3 ± 0.6 (400) % |
| Cc1ccc(/C=C/c2cc(F)ccc2O)s1 [Compound 5, (E)-4-fluoro-2-(2-(5-methylthiophen-2-yl)vinyl)phenol] | 155 µM | – | 0.204 mol TE/mol of Compound | 22.9 µM | 130 µM | – | – | inhibition at 250 µM (eeAChE; [3]): 84.6 ± 2.7%; inhibition at 100 µM (eqBChE; [4]): 75.3 ± 2.3%; DPPH Inhibition (%) ([2]; 400 μM): 83.0 ± 1.9 (400) % |
| Cc1ccc(/C=C/c2cc(Cl)ccc2O)s1 [Compound 6, (E)-4-chloro-2-(2-(5-methylthiophen-2-yl)vinyl)phenol] | – | – | 1.407 mol TE/mol of Compound | – | > 250 µM | – | – | IC50 (eeAChE): 27.1 µM; inhibition at 80 µM (eeAChE; [3]): 82.4 ± 0.8%; IC50 (eqBChE): 39.7 µM; inhibition at 100 µM (eqBChE; [4]): 84 ± 1.8%; DPPH Inhibition (%) ([2]; 400 μM): 42.9 ± 2.7 (400) % |
| COc1ccc(O)c(/C=C/c2ccc(C)s2)c1 [Compound 7, (E)-4-methoxy-2-(2-(5-methylthiophen-2-yl)vinyl)phenol] | – | – | 2.350 mol TE/mol of Compound | – | 23.8 µM | – | – | IC50 (eeAChE): 62.9 µM; inhibition at 200 µM (eeAChE; [3]): 81.1 ± 1.1%; IC50 (eqBChE): 42.5 µM; inhibition at 200 µM (eqBChE; [4]): 83.1 ± 0.8%; DPPH Inhibition (%) ([2]; 50 μM): 86.2 ± 2.3 (50) % |
| Cc1ccc(O)c(/C=C/c2ccc(C)s2)c1 [Compound 8, (E)-4-methyl-2-(2-(5-methylthiophen-2-yl)vinyl)phenol] | – | – | 1.148 mol TE/mol of Compound | – | 26.3 µM | – | – | IC50 (eeAChE): 92.4 µM; inhibition at 150 µM (eeAChE; [3]): 78.2 ± 7.7%; IC50 (eqBChE): 24.8 µM; inhibition at 250 µM (eqBChE; [4]): 88.5 ± 5%; DPPH Inhibition (%) ([2]; 250 μM): 89.3 ± 1.2 (250) % |
| Cc1cnc(/C=C\c2cc(F)ccc2O)s1 [Compound 9, (Z)-4-fluoro-2-(2-(5-methylthiazol-2-yl)vinyl)phenol] | > 100 µM | – | 1.000 mol TE/mol of Compound | > 250 µM | 428 µM | 55.4 ± 0.7 (500) % | – | inhibition at 100 µM (eeAChE; [3]): 17.6 ± 3.1%; inhibition at 250 µM (eqBChE; [4]): 10.5 ± 4.1% |
| Cc1cnc(/C=C\c2cc(Cl)ccc2O)s1 [Compound 10, (Z)-4-chloro-2-(2-(5-methylthiazol-2-yl)vinyl)phenol] | > 100 µM | 34.2 ± 2.1% | 0.630 mol TE/mol of Compound | > 250 µM | > 250 µM | 24.0 ± 0.7 (500) % | 22.4 ± 9% | – |
| COc1ccc(/C=C/c2ncc(C)s2)c(O)c1 [Compound 11, (E)-5-methoxy-2-(2-(5-methylthiazol-2-yl)vinyl)phenol] | > 100 µM | 29.3 ± 1.8% | – | > 250 µM | 30.1 µM | – | 9.8 ± 2.7% | inhibition of BChE (eqBChE): < 50%; DPPH Inhibition (%) ([2]; 524 μM): 89.8 ± 0.0 (524) % |
| Cc1cnc(/C=C/c2ccc(O)cc2)s1 [Compound 12, (E)-4-(2-(5-methylthiazol-2-yl)vinyl)phenol] | > 100 µM | 9.1 ± 1.4% | – | 189 µM | 140 µM | – | 68.4 ± 1.3% | DPPH Inhibition (%) ([2]; 524 μM): 74.1 ± 0.4 (524) % |
| Cc1cnc(/C=C/c2ccccc2O)s1 [Compound 13, (E)-2-(2-(5-methylthiazol-2-yl)vinyl)phenol] | > 100 µM | 17.1 ± 3.9% | – | 30.7 µM | 699 µM | – | 78.2 ± 3.8% | DPPH Inhibition (%) ([2]; 1047 μM): 59.8 ± 2.3 (1047) % |
| Cc1cnc(/C=C/c2cccc(O)c2)s1 [Compound 14, (E)-3-(2-(5-methylthiazol-2-yl)vinyl)phenol] | > 100 µM | – | – | > 250 µM | > 250 µM | – | – | inhibition at 250 µM (eeAChE; [3]): 10.7 ± 2.4%; inhibition of BChE (eqBChE): < 50%; inhibition at 250 µM (eqBChE; [4]): 15.6 ± 3.6%; DPPH Inhibition (%) ([2]; 250 μM): 11.2 ± 2.7 (250) % |
